Laboratory results taken from patent EP2077274A1, “Synthetic analogs of human beta-defensins having antimicrobial, antiviral and chemotactic activity” (Ceinge Biotecnologie Avanzate s.c. a r.l., priority 2008, dated 2009).

Key:
[1] = system: Enterococcus faecalis ATCC 29212; assay: Colony-forming unit (CFU) assay of antibacterial activity with NaCl dependence; format: cell-based; conditions: for antibacterial activity, inhibition by NaCl: 50 mM NaCl; for antibacterial activity at 200 mM NaCl: p<0.001 versus hBD3 in the same conditions; for antibacterial activity compared to wild-type hBD3: peptide 12.5 µM, p<0.01; for antibacterial activity at 200 mM NaCl / antibacterial activity compared to wild-type hBD3: 200 mM NaCl
Protocol: (§1) Colony-forming unit (CFU) assay of the antibacterial activity of the peptides against P.aeruginosa ATCC (American Type Culture Collection, Manassas, VA, USA) 27853, Enterococcus faecalis ATCC 29212 and Escherichia coli ATCC 25922 was performed. The strains were grown in aerobic conditions in tryptic soy broth (Difco Laboratories, Detroit, MI, USA) at 37°C. Cells from exponential-phase cultures were centrifuged, washed and suspended to a density of 1 x 10^5 CFU/mL in sterile 10 mM potassium phosphate buffer, pH 7.4, and incubated in the presence of the peptides. The incubation time was 2 h at 37°C. […] For salt dependence assay, NaCl in a range of concentrations potentially present in the airway surface fluid of normal subjects and CF patients (33), i.e., 0, 50, 100 and 200 mM NaCl, were included in the incubation buffer. The cells were then diluted serially in the same buffer, spread on tryptone-yeast (Difco Laboratories) plates and the colonies were counted after 18 h at 37°C. Each assay was performed in triplicate. Bactericidal activity (mean and SD of three assays) is expressed as the ratio between colonies counted and the number of colonies on a control plate.

[2] = system: Escherichia coli ATCC 25922; assay: as above; format: cell-based; conditions: for antibacterial activity, inhibition by NaCl: 50 mM NaCl; for antibacterial activity at 200 mM NaCl: p<0.001 versus hBD3 in the same conditions; for antibacterial activity compared to wild-type hBD3: peptide 12.5 µM, p<0.01; for antibacterial activity at 200 mM NaCl / antibacterial activity compared to wild-type hBD3: 200 mM NaCl
Protocol: as §1

[3] = system: P.aeruginosa ATCC 27853; assay: as above; format: cell-based; conditions: for antibacterial activity, inhibition by NaCl: 50 mM NaCl; for antibacterial activity at 200 mM NaCl: p<0.001 versus hBD3 in the same conditions; for antibacterial activity at 200 mM NaCl / antibacterial activity compared to wild-type hBD3: 200 mM NaCl
Protocol: as §1

[4] = system: neutrophils; assay: Chemotaxis assay (leukocyte migration, calcein fluorescence); format: cell-based, human; conditions: for chemotactic activity compared to wild-type hBD1: peptide 1.25 µM
Protocol: (§2) Preparation of leukocytes-Monocytes and neutrophils were isolated as described in the StemSep Cell Technical Manual (Stem Cell Technologies, Vancouver, Canada). Briefly, to obtain neutrophils, buffy coats were diluted 1:20 in NH4Cl supplemented with 2 mM EDTA and incubated on ice for 20 min. Cell suspensions were centrifuged for 10 min at 600 X g at room temperature with the brake off and washed three times with phosphate buffered saline (PBS) supplemented with 2% foetal bovine serum and 2 mM EDTA. Cell viability was assessed by analysis of light scatter properties, and cell count was performed using a logical gate strategy based on Trucount tubes (Becton-Dickinson, San Jose, CA, USA). Neutrophils were purified from lysed buffy coats using StemSep negative selection system. To this purpose, 100x10^6 mononuclear cells from lysed buffy coats were incubated with 100 µL of custom antibody cocktail for human granulocytes enrichment (Stem Cell Technologies) for 45 min on ice. In addition, cell suspensions were incubated with 60 µL of magnetic colloid for 30 minutes on ice. Finally, the samples were run through a 0.3-inch column matrix in a negative selection system in which the unwanted cells were immunomagnetically labelled and bound to the magnetic column. Neutrophils, after the separation, were collected in the column flowthrough without antibody bound to their surface. In order to obtain monocytes, human buffy coats were layered over a Ficoll-Paque density gradient and spun at 600 X g for 30 min with the brake off. The mononuclear cell-rich fractions were washed three times with PBS supplemented with 2% foetal bovine serum (FBS) and 2 mM EDTA. Cell viability was assessed by analysis of light scatter properties, and cell count was performed using a logical gate strategy based on Trucount tubes (Becton-Dickinson). A custom antibody cocktail for human monocyte enrichment (Stem Cells Technologies) was used for immunomagnetic negative selection of monocytes. Mononuclear cells were incubated as above described for neutrophils. Both neutrophils and monocytes were resuspended in 5.0 mL of RPMI-1640 (Sigma-Aldrich, St Louis, MO, USA) without phenol red containing 10% heat-treated FBS. Calcein AM (Molecular Probes, Eugene, OR, USA) was added to the cell suspensions (5.0 mL) at a concentration of 5 µg/mL and the cells were incubated for 30 min at 37°C. Cell suspensions were washed twice with PBS and then resuspended in RPMI-FBS to the desired concentration.
(§3) Measurement of leukocytes migration-The chemotaxis assay of monocytes and neutrophils (90-95% of purity) was performed in 96-well disposable chemotaxis chambers (Neuroprobe, Gaithersburg, MD, USA) using polyvinyl-pyrrolidone-free polycarbonate membranes with an […] pore size for monocytes and with a […] pore size for neutrophils. Chemotaxis was measured by fluorescence detection, using the calcein fluorescence signal. The fluorescence was read in a microplate fluorescence reader (Victor 3 1420 Multilabel Counter, Perkin Elmer) with excitation/emission wave-length settings of 485/530 nm. We calculated the migration index as the ratio between the sample mean fluorescence (after subtraction of the negative control mean fluorescence)/positive control mean fluorescence. Each assay was performed in quadruplicate.

[5] = system: monocytes; assay: as above; format: cell-based, human; conditions: for chemotactic activity compared to wild-type hBD1: peptide 1.25 µM
Protocol: as §2, §3

[6] = system: HSV-1; assay: HSV-1 infectivity plaque assay on Vero cell monolayers (co-exposure, virus pre-treatment, cell pre-exposure); format: cell-based; conditions: for % of infectivity: mean and SD of 3 replicates; for inhibition of HSV infectivity: peptide 50 µM, reduced form
Protocol: Vero cells were grown in Dulbecco's modified Eagle's medium (DMEM) supplemented with 10% foetal calf serum. HSV-1 carrying a IacZ gene driven by the cytomegalovirus (CMV) IE-1 promoter to express beta-galactosidase was propagated as described (33). Peptides were dissolved in DMEM with serum and used at different concentrations. All experiments were conducted in parallel with scrambled peptides and no-peptide controls. […] Non-penetrated viruses were inactivated by citrate buffer at pH 3.0 after the 45 min incubation with cells at 37°C. The cells were then incubated for 48 h at 37°C in DMEM supplemented with carboxymethylcellulose (CMC). Monolayers were fixed, stained with 5-bromo-4-chloro-3-indolyl-beta-D-galactopyranoside (X-gal) and plaque numbers were scored. Experiments were performed in triplicate and the percentage of inhibition was calculated with respect to no-peptide control experiments. ii) For "virus pre-treatment" experiments, approximately 2 x 10^4 plaque forming units (PFU) of HSV-1 were incubated in the presence of 20 µM of peptides for 45 min at 37°C, then titrated on Vero cell monolayers. iii) For "cell pre-exposure" experiments, Vero cells were incubated with 20 µM of peptides for 30 min at 4°C. Peptides were removed, and cells were washed with phosphate-buffered saline before being infected with serial dilutions of HSV-1 and incubated for 45 min at 37°C.
Monolayers were exposed to different concentrations (10, 50, 100, 250 and 500 µM) of each peptide for 24 h, and cell viability was evaluated with the LDH assay. There was no significant difference between the viability of cells exposed to the peptides and that of cells exposed to control (data not shown). Thus, we evaluated the antiviral activity of wild type peptides and their analogs in: co-exposure experiments (cell + virus + peptide at zero time); virus pre-treatment (virus + peptide incubation before cell infection); and cell pre-exposure (cell + peptide incubation before virus infection). This would allow to evaluate if, and in which phase, the peptides could inhibit the virus infectivity.
For co-exposure experiments, we incubated the peptides on the monolayers of Vero cells together with the virus inoculum for 45 min before low pH treatment. The reduced form of wild-type hBD1 and hBD3 and analogs 1C, 1 N, 3C, 3N were used in all subsequent experiments. […] No control (peptide excluded) inhibited HSV-1 infectivity under similar experimental conditions.

[7] = cell pre-exposure, peptide 20 µM
[8] = virus pre-incubation, peptide 20 µM
[9] = 0 to 200 mM NaCl, pattern as against P. aeruginosa

Row | Sequence | antibacterial activity, inhibition by NaCl [1] | antibacterial activity, inhibition by NaCl [2] | antibacterial activity, inhibition by NaCl [3] | chemotactic activity compared to wild-type hBD1 [4] | antibacterial activity at 200 mM NaCl [1] | antibacterial activity at 200 mM NaCl [2] | antibacterial activity at 200 mM NaCl [3] | chemotactic activity compared to wild-type hBD1 [5] | % of infectivity [6, 7] [%] | % of infectivity ([6]; co-exposure, peptide 20 µM) [%] | % of infectivity [6, 8] [%] | other results
1 | DHYNCVSSGGQCLYSACLPKEEQIGKCYRGKAKCCK [1I] | inhibited already by 50 mM NaCl | inhibited already by 50 mM NaCl | inhibited already by 50 mM NaCl | significantly lower activity | – | – | – | – | – | – | – | –
2 | DHYNCVSSGGQCLYSACLPKEEQIGKCYRGKRKCCRRKK [1CI] | – | – | – | significantly lower activity | displayed antibacterial activity | displayed antibacterial activity | displayed antibacterial activity | significantly lower | – | – | – | –
3 | DHYNCVSSGGQCLYSACPIFTKIQGTCYRGKAKCCK [hBD1 wt, wild type human beta-defensin 1, reference compound] | inhibited already by 50 mM NaCl | inhibited already by 50 mM NaCl | inhibited already by 50 mM NaCl | – | – | – | – | – | 71.3±1.2 | 74.7±2.4 | 65.3±3.8 | chemotactic activity, effect of NaCl ([5]; 200 mM NaCl): comparable to that obtained at 100 mM NaCl; chemotactic activity, effect of NaCl ([5]; NaCl between 100 and 150 mM, p<0.001): significantly increased; chemotactic activity, effect of NaCl ([4]; NaCl concentrations up to 200 mM): did not significantly affect
4 | DHYNCVSSGGQCLYSACPIFTKIQGTCYRGKRKCCRRKK [1C] | – | – | – | comparable to that of hBD1 | – | – | – | significantly lower | 24.1±2.2 | 57.6±1.8 | 40.3±2.6 | antibacterial activity compared to wild-type hBD3, pattern over NaCl concentrations [1, 9]: same pattern of activity; antibacterial activity compared to wild-type hBD3, pattern over NaCl concentrations [2, 9]: same pattern of activity; antibacterial activity compared to wild-type hBD3 ([3]; peptide 2.5 and 12.5 µM, p<0.001): significantly higher; antiviral activity in words ([6]; cell pre-exposure treatment, peptide 20 µM): active; inhibition of HSV infectivity ([6]; co-exposure): 70%
5 | GIINTLDHYNCVSSGGQCLYSACPIFTKIQGTCYRGKAKCCK [1N] | inhibited already by 50 mM NaCl | inhibited already by 50 mM NaCl | inhibited already by 50 mM NaCl | significantly lower activity | – | – | – | comparable to that of wild-type hBD1 | 64.8±3.5 | 73.2±4.2 | 75.6±3.5 | antibacterial activity compared to wild-type hBD3 [1]: significantly higher; antibacterial activity compared to wild-type hBD3 [2]: significantly higher; antibacterial activity compared to wild-type hBD3 ([3]; peptide 12.5 µM, p<0.01): significantly higher
6 | GIINTLQKYYCRVRGGRCAVLSCLPKEEQIGKCSTRGAKCCK [3C] | – | – | – | – | – | – | – | – | 50.3±3.4 | 61.7±3.4 | 32.4±4.3 | –
7 | GIINTLQKYYCRVRGGRCAVLSCPIFTKIQGTCSTRGAKCCK [3CI] | inhibited already by 50 mM NaCl | inhibited already by 50 mM NaCl | inhibited already by 50 mM NaCl | significantly higher | – | – | – | significantly lower | – | – | – | antibacterial activity compared to wild-type hBD3 [1]: significantly higher; antibacterial activity compared to wild-type hBD3 [2]: significantly higher; antibacterial activity compared to wild-type hBD3 ([3]; peptide 12.5 µM, p<0.01): significantly higher
8 | GIINTLQKYYCRVRGGRCAVLSCPIFTKIQGTCSTRGRKCCRRKK [3I] | – | – | – | – | displayed antibacterial activity | displayed antibacterial activity | displayed antibacterial activity | comparable to that of wild-type hBD1 | – | – | – | –
9 | QKYYCRVRGGRCAVLSCLPKEEQIGKCSTRGRKCCRRKK [3N] | – | – | – | comparable to that of hBD1 | displayed antibacterial activity | displayed antibacterial activity | displayed antibacterial activity | – | 13.4±4.2 | 20.4±2.4 | 8.5±2.1 | inhibition of HSV infectivity ([6]; co-exposure): 90%
